Legend:
[1] = tested on: A375, SW620, LOVO and HCT116 xenografts; assay: Tumor xenografts in nude mice, tumor growth; format: in vivo; settings: single administration
Protocol: Six-week-old female athymic NU/NU nude mice were injected subcutaneously with 5×10^5 of A375, SW620, LOVO, and HCT116 in […] culture media/Matrigel at a 1:5 ratio. For cell-line-derived xenografts, animals were randomized at a tumor volume of 70 to 120 mm^3 to four to six groups, with n=8-10 tumors per group. […] Xenografts were measured with digital caliper, and tumor volumes were determined with the formula: […]. Animals were euthanized using CO2 inhalation. Tumor volumes are plotted as means±SEM. Mice were housed in air-filtered laminar flow cabinets with a 12-hr light/dark cycle and food and water ad libitum. […]

[2] = tested on: B16F10 melanoma lung metastases
Protocol: A luciferase-expressing B16F10 melanoma lung metastasis model was used. The cells were injected into the tail vein at day 0. The FiDOX particles and controls were injected at day 7. The progression of metastasis was monitored with bioluminescence imaging after injection of luciferin. The bioluminescence images show the luciferase-expressing B16F10 cancer cells after injection of D-luciferin, 21 days after inoculation and 14 days after a single treatment.
FIG. 8 is a plot showing laboratory mouse survival curve data in the B16F10 melanoma lung metastasis model treated with a single injection of FiDOX nanoparticles, injected on day 7.
C57BL/6 mice were inoculated intravenously (i.v.) with 1×10^5B16-F10 cells on day 0 and the tumor was allowed to establish until day 7. In one experiment, mice were divided randomly into 5 groups and injected i.v. with FiDOX, Fi, DexDOX.
After treatment, mice were monitored up to 8 or 17 weeks, depending on the treatment received. At the end of the experiments, mice were sacrificed, their lungs were collected, and the number of surface-visible tumors was examined. The Kaplan-Meier method was used to evaluate survival.
The anti-tumor efficacy of P-selectin-targeted drug carrier nanoparticles was assessed against an aggressive experimental metastasis model. […]

`Cn1cnc2c(F)c(Nc3ccc(Br)cc3F)c(C(=O)NOCCO)cc21` [MEK162, 6-(4-bromo-2-fluoroanilino)-7-fluoro-N-(2-hydroxyethoxy)-3-methylbenzimidazole-5-carboxamide] was tested. Which tumor growth inhibition [1] did it give?
Its tumor growth inhibition is “no effect”.

`COc1cccc2c1C(=O)c1c(O)c3c(c(O)c1C2=O)C[C@@](O)(C(=O)CO)C[C@@H]3O[C@H]1C[C@H](N)[C@H](O)[C@H](C)O1` [doxorubicin, (7S,9S)-7-[(2R,4S,5S,6S)-4-amino-5-hydroxy-6-methyloxan-2-yl]oxy-6,9,11-trihydroxy-9-(2-hydroxyacetyl)-4-methoxy-8,10-dihydro-7H-tetracene-5,12-dione] was tested. Which survival ([2]; single injection on day 7) did it give?
Its survival is “did not have a significant effect”.

What about the tumor burden ([2]; single injection, bioluminescence) of the same compound?
The tumor burden was “did not have a significant effect”.
